Source: US10184933B2, “Compositions, systems and methods for gene expression noise drug screening and uses thereof” (priority 2013, dated 2019)
Entries after “also recorded” stand apart in the source; their conditions may differ. Where a name gives a salt, the structure may show the parent alone. Read-outs that look alike come from different tables or passages of the source.

Tests used:
HIV-1 LTR promoter [1] = type: cell-based; details: for variability in gene expression (noise magnitude): known transcriptional modulators applied to the isoclone target, FIG. 6D
HIV-1 LTR promoter [2] = experiment: Two-reporter system (LTR-d2GFP and LTR-mCherry) noise measurement; type: cell-based; details: FIG. 6E; for d2GFP noise / mCherry noise: known transcriptional activators; for transcriptional burst frequency (decreasing noise in mCherry): transcriptional modifiers
Experimental: Without being bound by theory, a destabilized reporter is required to observe transcriptional noise with shorter time scales. GFP noise magnitude (quantified by the variance over the mean fluorescence squared, CV^2) and mean fluorescence were measured by high-throughput flow cytometry 24 hours post 10 uM drug exposure. To control for extrinsic variability in gene expression due to cell volume and state a conservative gating on the population forward versus side scatter was applied (See General Methods). A second LTR driving a long-lived mCherry reporter was integrated and screened alongside the destabilized reporter drug target to control for fluctuations in global resources and post-transcriptional noise sources (FIG. 6E).
To distinguish between compounds that primarily target transcription versus post-transcriptional processes and global resources (extrinsic noise) a second reporter of the LTR promoter driving a stable mCherry gene was included in the same targeted cell population used in the drug noise screen (FIG. 6E). The stable reporter averages out and is unaffected by fluctuations due to episodic transcription. Theory predicts that the destabilized d2GFP reporter can detect transcriptional bursting noise contributions (γp>>kon,koff, where γp is the fluorescent reporter degradation rate) while the two reporters together will move their noise magnitudes to changes in non-transcriptional noise sources. Filtering out non-transcriptional noise signatures of VM hits increases the probability for synergistic reactivation of latency. Noise from the two reporters was compared using the same processing as the LTR-d2GFP. The LTR-mCherry ΔCV^2 of the 85 selected VMs primarily land along the ΔCV^2 d2GFP axis. […]. Of these 25 compounds 15 were identified as modifiers of cell cycle, ATP, inflammation, post-translational modifications, and translation.
In addition to the GFP reporter in the LTR-d2GFP cell line, an LTR driving a long half-life mCherry reporter was present in the cell line. […] To remove compounds that altered CV^2 post transcriptionally, compounds that affected the CV^2 long-lived red reporter while conserving its mean mCherry level were removed. This method continues development of the original and decade-old 2-reporter system for intrinsic versus extrinsic noise measurements in bacteria (Elowitz et al., (2002) Science 297:1183-1186).

JLat cell line 8.6 = test system: JLat cell line 8.6
Experimental: FIG. 17 schematically depicts reactivation percentage versus drug toxicity for conventional reactivation cocktails (e.g. TNF+Prostratin, SAHA+Prostratin, SAHA+TNF+Prostratin) and 21 cocktails containing noise-enhancer compounds in combination with TNF+Prostratin. Controls: TNF alone, Prostratin alone, and Untreated, as indicated. Measurements were performed in duplicate on JLat cell line 8.6 after 48 h treatment. […] Details are described, e.g., in Example 9.
(§1) To test whether reactivation could be further optimized, the doses of noise enhancers and activators were varied (FIG. 14).

HIV-1 LTR promoter [3] = experiment: Two-reporter system (LTR-d2GFP and LTR-mCherry) noise measurement; type: cell-based; details: alternate set of integration sites
HIV-1 LTR promoter [4] = experiment: Single-cell time-lapse fluorescence microscopy of polyclonal LTR d2GFP cell population; type: cell-based
Excerpt: Lentiviral vectors expressing the LTR-GFP cassette in the absence of Tat were described (Weinberger et al., 2005, Cell, 122(2):169-182) and used to infect 5×10^5 Jurkat cells at a multiplicity of infection <0.1, resulting in 25,000-50,000 infected cells each presumably with a unique integration site. Cells were then sorted by FACS to isolate green fluorescent protein-labeled (GFP+) cells and fluorescently imaged on glass-bottom dishes in RPMI 1640 with 10% fetal calf serum and 1% penicillin-streptomycin and 10 μM of VM at t=0 h for the population which was pre-treated with VM 1 day before imaging. […] For each trajectory, noise autocorrelation [Φ(t)] and magnitude (CV^2) were calculated using an established noise-processing algorithm (Weinberger at al., 2008, Nature Genetics, 40(4):466-470; Dar at al., 2012, Proc Natl Acad Sci USA 109:17454-17459; Boehm et al., 2013, Cell Cycle 12:452-462).
To assess whether identified VMs are specific to the integration site of the drug screen target, a polyclonal LTR d2GFP population was treated with select VM hits and imaged using time-lapse single cell fluorescence microscopy (Dar et al., 2012, Proc Natl Acad Sci USA 109:17454-17459; Boehm et al., 2013, Cell Cycle 12:452-462) (FIG. 6C). […]

[5] = test system: latent HIV-1 in primary human CD4+ T cells; type: cell-based
Excerpt: (§2) Details on the Siliciano T-Cell model of HIV-1 latency can be found in Yang et al., 2009, J Clin Invest 119:3473-3486. Details on the Planelles T-Cell model of HIV-1 latency can be found in Bosque and Planelles, 2009, Blood 113:58-65.
(§3) To test if VMs enhance reactivation in a primary cell model of latency 14 VMs were selected from the 85 VMs initially screened on the JLat cell line. […] Two separate primary cell models of latency were screened (Bosque and Planelles, 2009, Blood 113:58-65; Yang et al., 2009, J Clin Invest 119:3473-3486) The Siliciano model of latency is generated using primary human CD4+ T cells which are transduced with Bcl-2 to allow long-term in vitro survival. The Bcl-2^+ cells are activated with -CD3/-CD28 antibody and infected with a GFP expressing virus. Cells remain in culture for over a month to allow transition into resting memory states and then sorted for GFP-cells after which the sorted cells are the latent pool of cells tested for reactivation. […] Reactivation experiments were designed with a positive control (PMA with Ionomycin or -CD3/-CD28 activation) as well as media only or VM treatment measurements.

[6] = test system: latent HIV-1 in JLat 8.6 cells; type: cell-based
[7] = test system: latent HIV-1 in primary cells of two donors; type: cell-based
Excerpt: as §2, §3

[8] = test system: latent HIV-1 in JLat cell lines; experiment: Dose response of reactivation in JLat cell lines (FIG. 14); type: cell-based; details: with TNF or Prostratin
Experimental: FIGS. 14A and 14B schematically depict dose response curves for compounds V14 and V82 with TNF and Prostratin. FIG. 14A schematically depicts V14 dose response curves with four different concentrations of TNF (left) and five different concentrations of Prostratin (right) at 24 and 48 hours. […] Details are described, e.g., in Example 9.
as §1

[9] = in vivo, cited from earlier work
[10] = Pharmakon 1600 library, 10 uM, 24 hours, FIG. 10

Compound: O=C(CCCCCCC(=O)Nc1ccccc1)NO [SAHA, N-hydroxy-N′-phenyl-octanediamide]
- identified as variability enhancer (VE) in noise screen (HIV-1 LTR promoter [1]; [10]): variability enhancers
- variability in gene expression (noise magnitude) (HIV-1 LTR promoter [1]): increase variability in gene expression; also recorded: variability enhancers
- d2GFP noise (HIV-1 LTR promoter [2]): increase d2GFP noise
- mCherry noise (HIV-1 LTR promoter [2]): decrease mCherry noise
- transcriptional burst frequency (decreasing noise in mCherry) (HIV-1 LTR promoter [2]): increase transcriptional burst frequency
- off-target cytotoxicity for uninfected cells (JLat cell line 8.6): substantial off-target cytotoxicity
- transcriptional variability (d2GFP) with dose response (HIV-1 LTR promoter [3]): increasing transcriptional variability

Compound: CC(/C=C/C(=O)NO)=C\[C@@H](C)C(=O)c1ccc(N(C)C)cc1 [TSA, [R-(E,E)]-7-[4-(Dimethylamino)phenyl]-N-hydroxy-4,6-dimethyl-7-oxo-2,4-heptadienamide]
- variability in gene expression (noise magnitude) (HIV-1 LTR promoter [1]): increase variability in gene expression; also recorded: variability enhancers
- d2GFP noise (HIV-1 LTR promoter [2]): increase d2GFP noise
- mCherry noise (HIV-1 LTR promoter [2]): decrease mCherry noise
- transcriptional burst frequency (decreasing noise in mCherry) (HIV-1 LTR promoter [2]): increase transcriptional burst frequency
- transcriptional variability (d2GFP) with dose response (HIV-1 LTR promoter [3]): increasing transcriptional variability

Compound: CC(=O)O[C@@]12CO[C@@H]1C[C@H](O)[C@@]1(C)C(=O)[C@H](O)C3=C(C)[C@@H](OC(=O)[C@H](O)[C@@H](NC(=O)OC(C)(C)C)c4ccccc4)C[C@@](O)([C@@H](OC(=O)c4ccccc4)[C@H]21)C3(C)C [V1, docetaxel]
- identified as variability enhancer (VE) in noise screen (HIV-1 LTR promoter [1]; [10]): variability enhancers
- high frequency noise magnitude (HF-CV^2) versus untreated polyclonal population (HIV-1 LTR promoter [4]; 10 μM, 24 hour pretreatment, tracked 12 hours, ~500 cells): increased high frequency noise magnitude; also recorded: increased noise magnitude trends above the untreated population

Compound: C[C@]12CC[C@@H]3c4ccc(OC(=O)N(CCCl)CCCl)cc4CC[C@H]3[C@@H]1CC[C@@H]2O [V3, estramustine]
- identified as variability enhancer (VE) in noise screen (HIV-1 LTR promoter [1]; [10]): variability enhancers
- synergy with activators [5]: synergized with either PMA, prostratin or bryostatin; also recorded: appear to synergize with all three activators
- synergy in reactivation of HIV-1 latency [6]: synergized

Compound: O=C(O)Cc1ccc(-c2ccccc2)cc1 [V4, felbinac]
- identified as variability enhancer (VE) in noise screen (HIV-1 LTR promoter [1]; [10]): variability enhancers
- synergy with bryostatin [7]: synergized with bryostatin
- synergy in reactivation of HIV-1 latency [6]: synergized

Compound: C[C@]12C=CC(=O)N[C@@H]1CC[C@@H]1[C@@H]2CC[C@]2(C)[C@@H](C(=O)Nc3cc(C(F)(F)F)ccc3C(F)(F)F)CC[C@@H]12 [V10, dutasteride]
- identified as variability enhancer (VE) in noise screen (HIV-1 LTR promoter [1]): variability enhancers
- synergy with activators [5]: synergized with either PMA, prostratin or bryostatin; also recorded: appear to synergize with all three activators
- synergy in reactivation of HIV-1 latency [6]: synergized

Compound: O=C(O)COCCN1CCN(C(c2ccccc2)c2ccc(Cl)cc2)CC1 (centres unmarked) [V11, cetirizine hydrochloride]
- gene expression noise versus compound concentration (HIV-1 LTR promoter [1]): increasing trend in gene expression noise
- identified as variability enhancer (VE) in noise screen (HIV-1 LTR promoter [1]): variability enhancers
- concentration at peak in HIV-1 reactivation [6]: 25 µM
- synergy in reactivation of HIV-1 latency [6]: synergized
- reactivation relative to Prostratin alone ([6]; hydrochloride): about twice; also recorded: about three times
- reactivation relative to TNFα alone ([6]; hydrochloride): about twice; also recorded: about three times
- reactivation relative to TNFα or Prostratin alone (dose response surface) ([6]; hydrochloride): more than three times; also recorded: almost double; also recorded: greater reactivation
- reactivation when combined with TNFα and Prostratin ([6]; hydrochloride): further increase reactivation; also recorded: increased activation
- high frequency noise magnitude (HF-CV^2) versus untreated polyclonal population (HIV-1 LTR promoter [4]; hydrochloride): increased high frequency noise magnitude; also recorded: increased noise magnitude trends above the untreated population
- viability when combined with TNFα and Prostratin (JLat cell line 8.6): without significant reduction in viability

Compound: C[C@@H]1CC[C@H]2[C@@H](C)C(=O)O[C@@H]3O[C@@]4(C)CC[C@@H]1[C@]32OO4 [V14, artemisinin]
- identified as variability enhancer (VE) in noise screen (HIV-1 LTR promoter [1]; [10]): variability enhancers
- synergy with bryostatin [7]: synergized with bryostatin
- synergy in reactivation of HIV-1 latency [6]: synergized
- reactivation when combined with TNFα and Prostratin ([6]; VM + TNFα + Prostratin, 48 hours): further increase reactivation; also recorded: increased activation
- concentration at peak activation ([8]; 24 and 48 hours): about 10 μM
- viability when combined with TNFα and Prostratin (JLat cell line 8.6): without significant reduction in viability

Compound: O=c1[nH]c(=O)n([C@H]2C[C@H](O)[C@@H](CO)O2)cc1I [V82, idoxuridine]
- identified as variability enhancer (VE) in noise screen (HIV-1 LTR promoter [1]; [10]): variability enhancers
- synergy in reactivation of HIV-1 latency [6]: synergized
- concentration at maximal reactivation ([8]; 48 hours, two JLat cell lines): 50 µM

Compound: CCCC(CCC)C(=O)O [VPA, 2-propylpentanoic acid]
- variability in gene expression (noise magnitude) (HIV-1 LTR promoter [1]): increase variability in gene expression; also recorded: variability enhancers
- d2GFP noise (HIV-1 LTR promoter [2]): increase d2GFP noise
- mCherry noise (HIV-1 LTR promoter [2]): decrease mCherry noise
- time of peak serum levels ([9]; po): 1 to 4 h
- serum half-life [9]: 6 to 16 h
